This passage reports IC50 results from BindingDB's records for doi:10.1016/j.bioorg.2015.10.005 (Hazara University, 2015).

For the experiment, the target named is Urease subunit alpha (Sporosarcina pasteurii, UniProt P41020). Briefly: Urease Inhibition Assay. The following applies: pH 7. The protocol: This assay was modified from Berthelot assay and was employed for the determination of urease activity. The assay is based on the hydrolysis of urea into ammonia which reacts with phenol-hypochlorite to form light blue colored complex measured at 625 nm. A total volume of 85 µl assay mixture contained 10 µl of 50 mM phosphate buffer, pH 7.0, 10 µl of sample solution and 25 µl of Bacillus pasteurii urease (Sigma) solution (0.015 units). The contents were pre-incubated at 37 °C for 10 min. Then, 40 µl of urea stock solution (20 mM) was added to each well and incubation continued at 37 °C for further 10 min and preread at 625 nm using the 96-well plate reader Synergy HT (Biotek Inc.). Phenol hypochlorite (115 µl) reagent was added in each well (freshly prepared by mixing 45 µl phenol reagent with 70 µl of alkali reagent). For color development, incubation was done at 37 °C for another 10 min. Absorbance was again measured at 625 nm.
Sequence of Urease subunit alpha (P41020 as listed by the source): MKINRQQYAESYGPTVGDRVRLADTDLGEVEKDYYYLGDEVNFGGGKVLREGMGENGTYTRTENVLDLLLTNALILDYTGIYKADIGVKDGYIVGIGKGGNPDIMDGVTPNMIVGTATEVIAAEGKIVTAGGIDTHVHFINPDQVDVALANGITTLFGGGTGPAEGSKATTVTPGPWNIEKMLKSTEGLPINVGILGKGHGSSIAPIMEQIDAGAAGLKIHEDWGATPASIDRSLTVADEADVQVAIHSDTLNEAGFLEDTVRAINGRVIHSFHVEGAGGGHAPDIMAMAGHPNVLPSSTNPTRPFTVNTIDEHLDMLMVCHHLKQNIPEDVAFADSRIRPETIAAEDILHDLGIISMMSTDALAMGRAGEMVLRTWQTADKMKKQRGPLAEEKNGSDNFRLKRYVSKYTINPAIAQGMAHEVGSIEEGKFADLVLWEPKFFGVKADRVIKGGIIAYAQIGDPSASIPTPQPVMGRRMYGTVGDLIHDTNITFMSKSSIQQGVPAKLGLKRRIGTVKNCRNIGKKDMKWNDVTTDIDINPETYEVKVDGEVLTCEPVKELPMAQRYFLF
Turning to `O=C1CS/C(=N/N=C\c2ccc(O)cc2)N1` [(E)-2((E)-(4-Hydroxybenzylidin)hydrazono)thiazolidine-4-one (6)], the 50% inhibitory concentration (IC50) was determined as 14.6 µM. Under `COc1ccc(/C=N\N=C2/NC(=O)CS2)c(OC)c1` [(Z)-2-((Z)-(2,4-Dimethoxybenzoylidine)hydrazono)thiazolidine-4-one (18)] stands 69.6 µM. For `O=C1CS/C(=N/N=C\c2ccc(O)c(Cl)c2)N1` [(E)-2-((E)-(3-Chloro-4-hydroxybenzylideno)thiazolidin-4-one (3)], the half-maximal inhibitory concentration (IC50) is 9.34 µM. Under `O=C1CSC(N/N=C/c2ccc([N+](=O)[O-])cc2)=N1` [(E)-2((E)-(4-Nitrobenzylidene)hydrazono)thiazolidine-4-one (2)] stands 26.9 µM. Then `COc1cc(/C=N/N=C2\NC(=O)CS2)cc(Br)c1OC` [(E)-2((E)-(3-Bromo-4,5-dimethoxybenzylidene)hydrazono) thiazolidine-4-one (7)], with 36.6 µM; and `O=C1CS/C(=N/N=C/c2cc(Cl)cc(Cl)c2O)N1` [(E)-2-((E)-(3,5-Dichloro-2-hydroxybenzylidene)hydrazono)thiazolidin-4-one (5)], with 26.7 µM. Then `COc1cc(/C=N/N=C2\NC(=O)CS2)cc(OC)c1O` [(E)-2-((E)-(4-Hyrazoxy-3,5-dimethoxybenzylidene)hydrazono)thiazolidin-4-one (9)], with 37.9 µM. Turning to `O=C1CS/C(=N/N=C\C2C=Nc3ccccc32)N1` (centres undefined) [(E)-2-(E)-((1H-Indole-3-yl)methylene)hydrazono)thiazolidine-4-one (16)], the IC50 stood at 51.4 µM. As for `O=C1CS/C(=N/N=C/c2ccccc2[N+](=O)[O-])N1` [(E)-2-((E)-(2-Nitrobenzylidene)hydrazono)thiazolidin-4-one (1)], the concentration for half-maximal inhibition (IC50) came out at 47.5 µM. Under `COc1cccc(/C=N/N=C2\NC(=O)CS2)c1OC` [(E)-2-((E)-(2,3-Dimethoxybenzylidene)hydrazono)thiazolidin-4-one (4)] stands 52.5 µM.

For `O=C1CS/C(=N/N=C/c2cccc([N+](=O)[O-])c2)N1` [(E)-2((E)-(3-nitrobenzylidene)hydrazono)thiazolidin-4-one (8)], the IC50 was determined as 8.43 µM. As to `NC(N)=S` [thiocarbamide], the IC50 stood at 21.2 µM. Under `C/C(=N/N=C1\NC(=O)CS1)c1ccc([N+](=O)[O-])cc1Br` [(Z)-2-((Z)-(1-(2-Bromo-4-nitrophenyl)ethylidene)hydrazono)thiazolidine-4-one (15)] stands 2.31 µM; under `CCOc1ccc(/C=N\N=C2/NC(=O)CS2)cc1OC` [(Z)-2-((Z)-(4-Ethoxy-3-methoxybenzoylidine)hydrazono)thiazolidine-4-one (17)], 5.75 µM.

One may read the IC50 as the point on the concentration scale where inhibition reaches its midpoint.
